Here are results for 15 compounds from patent US20230322767A1, “ARYL SUBSTITUTED PYRROLO-PYRIDINONES AND THERAPEUTIC USES THEREOF” (Bayer Aktiengesellschaft, priority 2020, published 2023).

The target of one experiment is CSNK1A1 (Homo sapiens (Human), UniProt P48729). The experiment can be described thus: CSNK1A1 Assay 2 (ADP-Glo, 1 μM ATP). The conditions noted are these: median, read-out: CSNK1A1 Assay 2 IC50 [mol/l] (median). In kind it is biochemical. Here is the method: CSNK1A1-inhibitory activity of compounds of the present invention in presence of 1 μM adenosine-tri-phosphate (ATP) was quantified employing the CSNK1A1 assay as described in the following paragraphs. In essence, the enzyme activity is measured by quantification of the adenosine-di-phosphate (ADP), which is generated as a co-product of the enzyme reaction, via the “ADP-Glo™ Kinase Assay” kit from the company Promega. This detection system works as follows: In a first step the ATP not consumed in the kinase reaction is quantitatively converted to cAMP employing an adenylate cyclase (“ADP-Glo-reagent”), then the adenylate cyclase is stopped and the ADP generated in the kinase reaction converted to ATP which generates in a luciferase-based reaction a glow-luminescence signal (“Kinase Detection Reagent”).
Chain of CSNK1A1 (P48729 whole entry): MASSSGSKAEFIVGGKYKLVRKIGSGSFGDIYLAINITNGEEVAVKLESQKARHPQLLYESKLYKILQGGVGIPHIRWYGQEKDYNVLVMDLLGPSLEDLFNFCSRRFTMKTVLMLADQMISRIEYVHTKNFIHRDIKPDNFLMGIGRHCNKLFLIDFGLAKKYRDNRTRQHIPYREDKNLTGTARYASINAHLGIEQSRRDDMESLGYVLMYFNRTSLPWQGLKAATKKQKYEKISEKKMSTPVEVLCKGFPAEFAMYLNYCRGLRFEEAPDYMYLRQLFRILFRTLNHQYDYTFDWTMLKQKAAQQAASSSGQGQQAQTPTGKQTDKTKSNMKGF
As substrate for the kinase reaction the biotinylated peptide biotin-Ahx-KRRRAL-pS-VASLPGL (C-terminus in amide form) was used which can be purchased e.g. from the company Biosyntan (Berlin-Buch, Germany).
For the assay 50 nl of a 100 fold concentrated solution of the test compound in DMSO was pipetted into a white 1536-well microtiter plate (Greiner Bio-One, Frickenhausen, Germany), 2 μL of a solution of CSNK1A1 in aqueous assay buffer [50 mM HEPES pH 7.5, 10% (v/v) glycerol, 10 mM MgCl2, 50 mM NaCl, 1 mM dithiothreitol, 0.01% (w/v) bovine serum albumin, 0.01% (v/v) Triton X-100] were added and the mixture was incubated for 15 min at 22° C. to allow pre-binding of the test compounds to the enzyme before the start of the kinase reaction. […] The concentration of CSNK1A1 was adjusted depending of the activity of the enzyme lot and was chosen appropriate to have the assay in the linear range, a typical concentrations are about 0.0375 ng/μL. The reaction was stopped by the addition of 2.5 μL of “ADP-Glo-reagent” (1:1.5 fold diluted with water) and the resulting mixture was incubated at 22° C. for 1 h to convert the ATP not consumed in the kinase reaction completely […]. Subsequently 2.5 μL of the “kinase detection reagent” (1.2 fold more concentrated than recommended by the producer) were added, the resulting mixture was incubated at 22° C. for 1 h and then the luminescence measured with a suitable measurement instrument (e.g. Viewlux™ from Perkin-Elmer). The amount of emitted light was taken as a measure for the amount of ADP generated and thereby for the activity of the CSNK1A1.

The target in the next experiment is CSNK1D (Homo sapiens (Human), UniProt P48730). Put plainly: CSNK1D Assay (ADP-Glo, 1 μM ATP). The format is biochemical. The conditions noted are these: median, read-out: CSNK1D IC50 [mol/l] (median). The protocol:
CSNK1D-inhibitory activity of compounds of the present invention in presence of 1 μM adenosine-tri-phosphate (ATP) was quantified employing the CSNK1 D assay as described in the following paragraphs. In essence, the enzyme activity is measured by quantification of the adenosine-di-phosphate (ADP), which is generated as a co-product of the enzyme reaction, via the “ADP-Glo™ Kinase Assay” kit from the company Promega. This detection system works as follows: In a first step the ATP not consumed in the kinase reaction is quantitatively converted to cAMP employing an adenylate cyclase (“ADP-Glo-reagent”), then the adenylate cyclase is stopped and the ADP generated in the kinase reaction converted to ATP which generates in a luciferase-based reaction a glow-luminescence signal (“Kinase Detection Reagent”).
As substrate for the kinase reaction the biotinylated peptide Btn-Ahx-[…] (C-terminus in amide form) was used which can be purchased e.g. from the company Biosyntan (Berlin-Buch, Germany).
For the assay 50 nl of a 100 fold concentrated solution of the test compound in DMSO was pipetted into a white 1536-well microtiter plate (Greiner Bio-One, Frickenhausen, Germany), 2 μL of a solution of CSNK1D in aqueous assay buffer [50 mM HEPES pH 7.5, 10% (v/v) glycerol, 10 mM MgCl2, 50 mM NaCl, 1 mM dithiothreitol, 0.01% (w/v) bovine serum albumin, 0.01% (v/v) Triton X-100] were added and the mixture was incubated for 15 min at 22° C. to allow pre-binding of the test compounds to the enzyme before the start of the kinase reaction. […] The concentration of CSNK1D was adjusted depending of the activity of the enzyme lot and was chosen appropriate to have the assay in the linear range, a typical concentration is about 0.5 ng/μL. The reaction was stopped by the addition of 2.5 μL of “ADP-Glo-reagent” (1:1.5 fold diluted with water) and the resulting mixture was incubated at 22° C. for 1 h to convert the ATP not consumed in the kinase reaction completely […]. Subsequently 2.5 μL of the “kinase detection reagent” (1.2 fold more concentrated than recommended by the producer) were added, the resulting mixture was incubated at 22° C. for 1 h and then the luminescence measured with a suitable measurement instrument (e.g. Viewlux™ from Perkin-Elmer). The amount of emitted light was taken as a measure for the amount of ADP generated and thereby for the activity of the CSNK1D.

Chain of CSNK1D (P48730 whole entry): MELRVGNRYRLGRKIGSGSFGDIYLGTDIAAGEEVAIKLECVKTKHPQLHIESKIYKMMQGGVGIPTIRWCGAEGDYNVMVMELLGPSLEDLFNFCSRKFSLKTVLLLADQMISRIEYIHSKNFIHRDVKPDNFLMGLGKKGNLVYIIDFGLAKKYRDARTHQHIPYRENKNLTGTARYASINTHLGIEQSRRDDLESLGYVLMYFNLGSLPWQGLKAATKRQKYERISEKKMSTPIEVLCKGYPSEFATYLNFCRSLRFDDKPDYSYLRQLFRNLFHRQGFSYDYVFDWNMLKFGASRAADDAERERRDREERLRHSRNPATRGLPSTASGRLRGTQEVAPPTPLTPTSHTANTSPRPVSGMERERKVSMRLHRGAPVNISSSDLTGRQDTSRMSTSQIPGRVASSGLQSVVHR

With `CN1CC(CC(F)(F)F)c2[nH]c(-c3ccnc(NC(=O)C(CC(F)F)c4ccc(F)cc4)c3)c(-c3ccc(F)cc3)c2C1=O` (stereo not drawn) [Example 25, 4,4-difluoro-2-(4-fluorophenyl)-N-{4-[3-(4-fluorophenyl)-5-methyl-4-oxo-7-(2,2,2-trifluoroethyl)-4,5,6,7-tetrahydro-1H-pyrrolo[3,2-c]pyridin-2-yl]pyridin-2-yl}butanamide], the IC50 on CSNK1A1 came to 6.4 nM; on CSNK1D it was 5 nM.

For `CN1CCc2[nH]c(-c3ccnc(NC(=O)C(CC(F)F)c4ccc(F)cc4)c3)c(-c3ccccc3)c2C1=O` (single isomer, unassigned) [Example 4, 4,4-difluoro-2-(4-fluorophenyl)-N-[4-(5-methyl-4-oxo-3-phenyl-4,5,6,7-tetrahydro-1H-pyrrolo[3,2-c]pyridin-2-yl)pyridin-2-yl]butanamide], the IC50 on CSNK1A1 amounted to 1.1 nM; on CSNK1D, 2.3 nM.

As for `CC1CN(C)C(=O)c2c1[nH]c(-c1ccnc(NC(=O)C(CC(F)F)c3ccc(F)cc3)c1)c2-c1ccc(F)cc1` (stereo not drawn) [Example 33, 4,4-difluoro-2-(4-fluorophenyl)-N-{4-[3-(4-fluorophenyl)-5,7-dimethyl-4-oxo-4,5,6,7-tetrahydro-1H-pyrrolo[3,2-c]pyridin-2-yl]pyridin-2-yl}butanamide], the IC50 at CSNK1A1 and on CSNK1D was 4.3 nM throughout.

Regarding `CC(C(=O)Nc1cc(-c2[nH]c3c(c2-c2ccc(F)cc2)C(=O)N(C)CC3CC2CC2)ccn1)c1ccc(F)cc1` (stereo not drawn) [Example 62, N-{4-[7-(cyclopropylmethyl)-3-(4-fluorophenyl)-5-methyl-4-oxo-4,5,6,7-tetrahydro-1H-pyrrolo[3,2-c]pyridin-2-yl]pyridin-2-yl}-2-(4-fluorophenyl)propanamide], the IC50 is 7.6 nM on CSNK1A1 and 4 nM at CSNK1D.

`CN1CCc2[nH]c(-c3ccnc(NC(=O)C(CC(F)F)c4ccc(F)cc4)c3)c(-c3cccnc3)c2C1=O` (single isomer, unassigned) [Example 11, 4,4-difluoro-2-(4-fluorophenyl)-N-{4-[5-methyl-4-oxo-3-(pyridin-3-yl)-4,5,6,7-tetrahydro-1H-pyrrolo[3,2-c]pyridin-2-yl]pyridin-2-yl}butanamide]: the IC50 at CSNK1A1 came to 4.3 nM; on CSNK1D, 4.7 nM.

As to `CC(C(=O)Nc1cc(-c2[nH]c3c(c2-c2ccccc2)C(=O)N(C)C2(CCC2)C3)ccn1)c1ccc(F)cc1` (single isomer, unassigned; (-)) [Example 53, (−)-2-(4-fluorophenyl)-N-[4-(5′-methyl-4′-oxo-3′-phenyl-1′,4′,5′,7′-tetrahydrospiro[cyclobutane-1,6′-pyrrolo[3,2-c]pyridin]-2′-yl)pyridin-2-yl]propanamide], the IC50 on CSNK1A1 came to 21 nM; at CSNK1D it was 16 nM.

On to `CC(C(=O)Nc1cc(-c2[nH]c3c(c2-c2ccccc2)C(=O)NCC3(C)C)ccn1)c1ccc(F)cc1` (single isomer, unassigned) [Example 47, N-[4-(7,7-dimethyl-4-oxo-3-phenyl-4,5,6,7-tetrahydro-1H-pyrrolo[3,2-c]pyridin-2-yl)pyridin-2-yl]-2-(4-fluorophenyl)propanamide], for which the IC50 on CSNK1A1 was determined as 13 nM; at CSNK1D, 9.6 nM.

As for `CN1C(=O)c2c([nH]c(-c3ccnc(NC(=O)C(CC(F)F)c4ccc(F)cc4)c3)c2-c2ccccc2)CC12CCC2` (single isomer, unassigned; (+)) [Example 51, (+)-4,4-difluoro-2-(4-fluorophenyl)-N-[4-(5′-methyl-4′-oxo-3′-phenyl-1′,4′,5′,7′-tetrahydrospiro-[cyclobutane-1,6′-pyrrolo[3,2-c]pyridin]-2′-yl)pyridin-2-yl]butanamide], the results for the IC50 at CSNK1A1 and at CSNK1D were 1.8 nM and 2.4 nM, respectively.

Turning to `Cc1cn(C)c(=O)c2c(-c3ccc(F)cc3)c(-c3ccnc(NC(=O)C(C)c4ccc(F)cc4)c3)[nH]c12` (single isomer, unassigned; (+)) [Example 32, (+)-2-(4-fluorophenyl)-N-{4-[3-(4-fluorophenyl)-5,7-dimethyl-4-oxo-4,5-dihydro-1H-pyrrolo[3,2-c]pyridin-2-yl]pyridin-2-yl}propanamide], the IC50 came to 4.4 nM at CSNK1A1 and 3.6 nM at CSNK1D.

For the compound `Cc1cn(C)c(=O)c2c(-c3ccc(F)cc3)c(-c3ccnc(NC(=O)C(CC(F)F)c4ccc(F)cc4)c3)[nH]c12` (single isomer, unassigned; (+)) [Example 36, (+)-4,4-difluoro-2-(4-fluorophenyl)-N-{4-[3-(4-fluorophenyl)-5,7-dimethyl-4-oxo-4,5-dihydro-1H-pyrrolo[3,2-c]pyridin-2-yl]pyridin-2-yl}butanamide], the IC50 at CSNK1A1 and on CSNK1D was 3.5 nM in each case.

For `Cc1cn(C)c(=O)c2c(-c3ccc(F)cc3)c(-c3ccnc(NC(=O)C(C)c4ccc(F)cc4)c3)[nH]c12` (single isomer, unassigned; (-)) [Example 31, (−)-2-(4-fluorophenyl)-N-{4-[3-(4-fluorophenyl)-5,7-dimethyl-4-oxo-4,5-dihydro-1H-pyrrolo[3,2-c]pyridin-2-yl]pyridin-2-yl}propanamide], the IC50 at CSNK1A1 is 53 nM; at CSNK1D it was 14 nM.

Take `CC1c2[nH]c(-c3ccnc(NC(=O)C(CC(F)F)c4ccc(F)cc4)c3)c(-c3ccccc3)c2C(=O)N(C)C1C` (stereo not drawn) [Example 41, 4,4-difluoro-2-(4-fluorophenyl)-N-{4-[5,6,7-trimethyl-4-oxo-3-phenyl-4,5,6,7-tetrahydro-1H-pyrrolo[3,2-c]pyridin-2-yl]pyridin-2-yl}butanamide]: the IC50 came out at 5.7 nM at CSNK1A1 and 6.1 nM on CSNK1D.

`CN1CCc2[nH]c(-c3ccnc(NC(=O)C(CC(F)F)c4ccc(F)cc4)c3)c(-c3cccnc3)c2C1=O` (racemic) [Example 9, 4,4-difluoro-2-(4-fluorophenyl)-N-{4-[5-methyl-4-oxo-3-(pyridin-3-yl)-4,5,6,7-tetrahydro-1H-pyrrolo[3,2-c]pyridin-2-yl]pyridin-2-yl}butanamide]: the IC50 on CSNK1A1 worked out at 7.8 nM; at CSNK1D it was 9.2 nM.

For the compound `CN1C(=O)c2c([nH]c(-c3ccnc(NC(=O)C(CC(F)F)c4ccc(F)cc4)c3)c2-c2ccccc2)CC12CCC2` (single isomer, unassigned; (-)) [Example 50, (−)-4,4-difluoro-2-(4-fluorophenyl)-N-[4-(5′-methyl-4′-oxo-3′-phenyl-1′,4′,5′,7′-tetrahydrospiro-[cyclobutane-1,6′-pyrrolo[3,2-c]pyridin]-2′-yl)pyridin-2-yl]butanamide], the IC50 came to 12 nM on CSNK1A1 and 9.8 nM on CSNK1D.

For `Cc1cn(C)c(=O)c2c(-c3ccc(F)cc3)c(-c3ccnc(NC(=O)C(C)c4ccc(F)cc4)c3)[nH]c12` (racemic) [Example 30, 2-(4-fluorophenyl)-N-{4-[3-(4-fluorophenyl)-5,7-dimethyl-4-oxo-4,5-dihydro-1H-pyrrolo[3,2-c]pyridin-2-yl]pyridin-2-yl}propanamide], the IC50 turned out to be 5.7 nM on CSNK1A1 and 3.8 nM at CSNK1D.
